# In patent US4952565A (priority 1986, dated 1990):
# Like-named read-outs stand apart in the source and are kept apart here.
# Columns and labels:
# [1] = In vitro diffusion/resorption test, Stricker method, Sartorius model; format: in vitro ADME; settings: for Papp: not told, read-out: In vitro diffusion rate constant (kd) (converted)
# Description: The resorption tests were performed according to the Stricker method on a Sartorius Dissolution Model (Sartorius Dissolution Model, Instruction Manual, Sartorius Membranfilter, Gottingen 1972). The diffusion rates of ibuproxam through artificial lipid membranes at different pH values were determined. On the basis of the found diffusion rate constants (kd) the in vitro resorption rate constants (ka) were calculated.
# [2] = Dissolution profiles/rates on Sartorius Dissolution Model SM 16751; format: physicochemical
# Description: The quantities of the dissolved (MG) and of the resorbed (Mi) active ingredient were determined using a Sartorius Dissolution Model SM 16751 (Sartorius Dissolution Model, Instruction Manual, Sartorius Membranfilter, Gottingen 1972).
# [3] = Dissolution rates, Paddle Method, Apparatus 2 USP XXI, artificial gastric and intestinal juice; format: physicochemical; settings: 37 °C, 100 rpm, equ. 400 mg
# Description: The dissolution tests were performed in 0.027N HCl and 0.06N HCl (artificial gastric juice) and in artificial intestinal juice, pH 6.0, at the temperature of 37° C. The volume of the artificial biological fluids was 1000 ml. The stirring rate of the paddle mixer was 100 rpm.
# [4] = In vitro ibuproxam release from pharmaceutical forms, Paddle Method USP XXI; format: physicochemical; settings: 0.027 HCl, 37 °C, 100 rpm; ibuproxam and Ibudros 400 mg, complex equiv. to 200 mg; mean of 3
smiles,measurement,setting,value
"CC(C)Cc1ccc(C(C)C(=O)NO)cc1 (stereo not shown) [ibuproxam, 2-(4-isobutylphenyl)-propiohydroxamic acid]",Papp,"[1]; pH 1.2, average of 4 tests",235 ×10⁻⁶ cm/s
same,Papp,"[1]; pH 3.0, average of 4 tests",238 ×10⁻⁶ cm/s
same,Papp,"[1]; pH 6.0, average of 4 tests",233 ×10⁻⁶ cm/s
same,In vitro resorption rate constant (ka),"[1]; pH 1.2, calculated from kd with G = 4.3",0.060 min⁻¹
same,In vitro resorption rate constant (ka),"[1]; pH 6.0, calculated from kd with G = 10.0",0.138 min⁻¹
same,dissolution rate (kdiss),[2],0.00017 s⁻¹
same,"effect of pH of the biological fluids on dissolution rate, in words",[2],does not affect the dissolution rate
same,% of dissolved ibuproxam,"[3]; 0.027 N HCl pH 1.6, 5 min",21.4%
same,% of dissolved ibuproxam,"[3]; 0.027 N HCl pH 1.6, 15 min",28.1%
same,% of dissolved ibuproxam,"[3]; 0.027 N HCl pH 1.6, 30 min",33.3%
same,% of dissolved ibuproxam,"[3]; 0.027 N HCl pH 1.6, 45 min",37.4%
same,% of dissolved ibuproxam,"[3]; 0.027 N HCl pH 1.6, 60 min",43.1%
same,% of dissolved ibuproxam,"[3]; 0.06 N HCl pH 1.2, 5 min",21.8%
same,% of dissolved ibuproxam,"[3]; 0.06 N HCl pH 1.2, 15 min",29.8%
same,% of dissolved ibuproxam,"[3]; 0.06 N HCl pH 1.2, 30 min",37.4%
same,% of dissolved ibuproxam,"[3]; 0.06 N HCl pH 1.2, 45 min",40.4%
same,% of dissolved ibuproxam,"[3]; 0.06 N HCl pH 1.2, 60 min",41.7%
same,% of dissolved ibuproxam,"[3]; artificial intestinal juice pH 6.0, 5 min",10.2%
same,% of dissolved ibuproxam,"[3]; artificial intestinal juice pH 6.0, 15 min",21.2%
same,% of dissolved ibuproxam,"[3]; artificial intestinal juice pH 6.0, 30 min",27.7%
same,% of dissolved ibuproxam,"[3]; artificial intestinal juice pH 6.0, 45 min",32.7%
same,% of dissolved ibuproxam,"[3]; artificial intestinal juice pH 6.0, 60 min",33.3%
same,% dissolved within 15 min,[4],35.8%
same,% dissolved within 30 min,[4],43.4%
same,% dissolved within 60 min,[4],54.5%
